Experimental data reported in patent publication US20170121344A1 (Siga Technologies, Inc., priority 2009, published 2017).
Like-named read-outs stand apart in the source and are kept apart here.

Assays:
DENV-1 = test: Viral yield assay against DENV-1 in Vero cells; assay type: cell-based; conditions: Dengue virus
Experimental: (§1) Compounds that were active in the primary screen were tested for activity in viral yield assays. […] Vero cells in 12-well plates were infected with dengue-2 virus at a multiplicity of infection (MOI) of 0.1, treated with compound (or DMSO as a control), incubated at 37° C., harvested 48 hours post infection and titered on Vero cells as described above. The EC50 was calculated through ExcelFit. Activities against other serotypes of dengue virus were determined in a similar way.

DENV-3 = test: Viral yield assay against DENV-3 in Vero cells; assay type: cell-based; conditions: Dengue virus
Experimental: as §1

DENV-4 = test: Viral yield assay against DENV-4 in Vero cells; assay type: cell-based; conditions: Dengue virus
Experimental: as §1

[1] = test system: Dengue-2 (Strain New Guinea C); test: Viral yield assay against Dengue-2 in Vero cells; assay type: cell-based, Dengue virus; conditions: Dengue virus, read-out: Activity (EC50 in μM) DENV-2
Method in brief: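 Infect Vero cells with virus (MOI 0.1), add compound or DMSO, incubate at 37° C, collect progeny at 48 hours post infection, then titrate on Vero cells to obtain EC50.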

[2] = DENV2, viral yield assay, Vero cells, MOI 0.1, 48 hours post infection

Compound | EC50 (DENV-1; DENV1, viral yield assay) [µM] | EC50 (DENV-3; DENV3, viral yield assay) [µM] | EC50 (DENV-4; DENV4, viral yield assay) [µM] | EC50 [1, 2] [µM] | EC50 (DENV-1; DENV1) [µM] | EC50 (DENV-3; DENV3) [µM] | EC50 (DENV-4; DENV4) [µM] | EC50 ([1]; DENV2, Vero cells) [µM] | EC50 ([1]; DENV2, Vero, 48 h) [µM]
Nc1c(C(=O)Nc2ccccc2Br)sc2nc(-c3ccc(Cl)cc3)ccc12 [Compound 341, 3-amino-N-(2-bromophenyl)-6-(4-chlorophenyl) thieno[2,3-b] pyridine-2-carboxamide] | < 5 | < 5 | < 5 | < 5 |  |  |  |  | 
Nc1c(C(=O)Nc2ccc(Cl)cc2F)sc2nc(-c3ccc4c(c3)OCO4)ccc12 [Compound 598, 3-amino-6-(1,3-benzodioxol-5-yl)-N-(4-chloro-2-fluoro-phenyl)thieno[2,3-b] pyridine-2-carboxamide] | < 5 | < 5 | < 5 | < 5 |  |  |  |  | 
Nc1c(C(=O)Nc2ccc(F)cc2)sc2nc(-c3ccc(Cl)cc3)ccc12 [Compound 646, 3-amino-6-(4-chlorophenyl)-N-(4-fluorophenyl)thieno[2,3-b]pyridine-2-carboxamide] | < 5 | < 5 | < 5 | < 5 |  |  |  |  | 
CN(C)CC(=O)Nc1c(C(=O)Nc2ccc(OC(F)(F)F)cc2)sc2nc3c(cc12)CN(C)CC3 [Compound 312, 3-[[2-(dimethylamino)acetyl]amino]-6-methyl-N-[4-(trifluoromethoxy)phenyl]-7,8-dihydro-5H-thieno[2,3-b][1,6]naphthyridine-2-carboxamide] |  |  |  |  | < 5 | < 5 | < 5 | < 5 | 
Nc1c(C(=O)Nc2ccc(C(F)(F)F)cc2)sc2nc(-c3ccc(F)cc3)ccc12 [Compound 455, 3-amino-6-(4-fluorophenyl)-N-[4-(trilfuoromethyl)phenyl]thieno[2,3-b] pyridine-2-carboxamide] | < 5 | < 5 | 5 to 25 | < 5 |  |  |  |  | 
COc1ccc(Cl)cc1NC(=O)c1sc2nc(-c3ccc(OC)c(OC)c3)ccc2c1N [Compound 532, 3-amino-N-(5-chloro-2-methoxy-phenyl)-6-(3,4-dimethoxyphenyl)thieno[2,3-b] pyridine-2-carboxamide] | < 5 | < 5 | < 5 | < 5 |  |  |  |  | 
Nc1c(C(=O)Nc2ccc(Cl)c(Cl)c2)sc2nc(-c3cccs3)ccc12 [Compound 413, 3-amino-N-(3,4-dichlorophenyl)-6-(2-thienyl)thieno[2,3-b]pyridine-2-carboxamide] | < 5 | < 5 | < 5 | < 5 |  |  |  |  | 
Cc1ccc(NC(=O)c2sc3nc(-c4ccc5c(c4)OCO5)ccc3c2N)c(C)c1 [Compound 596, 3-amino-6-(1,3-benzodioxol-5-yl)-N-(2,4-dimethyphenyl)thieno[2,3-b]pyridine-2-carboxamide] | < 5 | < 5 | < 5 | < 5 |  |  |  |  | 
COc1cccc(-c2ccc3c(N)c(C(=O)Nc4ccccc4Oc4ccccc4)sc3n2)c1 [Compound 522, 3-amino-6-(3-methoxyphenyl)-N-(2-phenoxyphenyl)thieno[2,3-b]pyridine-2-carboxamide] | < 5 | < 5 | < 5 | < 5 |  |  |  |  | 
Nc1c(C(=O)Nc2ccc(C(F)(F)F)cc2)sc2nc(-c3ccc4c(c3)OCO4)ccc12 [Compound 452, 3-amino-6-(1,3-benzodioxol-5-yl)-N-[4-(trifluoromethyl)phenyl]thieno[2,3-b] pyridine-2-carboxamide] | < 5 | < 5 | < 5 | < 5 |  |  |  |  | 
Cc1cccc2cc3c(N)c(C(=O)Nc4cccc(C(F)(F)F)c4)sc3nc12 [Compound 364, 3-amino-8-methyl-N-(3-(trifluoromethyl)phenyl)thieno [2,3-b]quinoline-2-carboxamide] | < 5 | < 5 | < 5 | < 5 |  |  |  |  | 
COc1ccc(-c2ccc3c(N)c(C(=O)Nc4cccc(C(F)(F)F)c4)sc3n2)cc1OC [Compound 476, 3-amino-6-(3,4-dimethoxyphenyl)-N-[3-(trifluoromethyl)phenyl]thieno[2,3-b] pyridine-2-carboxamide] | < 5 | < 5 | < 5 | < 5 |  |  |  |  | 
COC(OC)c1ccc2c(N)c(C(=O)Nc3ccc(C(F)(F)F)cc3)sc2n1 [Compound 482, 3-amino-6-(dimethoxymethyl)-N-[4-(trifluoromethyl)phenyl]thieno[2,3-b] pyridine-2-carboxamide] | < 5 | < 5 | < 5 | < 5 |  |  |  |  | 
NCC(=O)Nc1c(C(=O)Nc2nnc(-c3ccccc3)s2)sc2nc(Cl)ccc12 [Compound 361, 3-[(2-aminoacetyl)amino]-6-chloro-N-(5-phenyl-1,3,4-thiadiazol-2-yl)thieno[2,3-b]pyridine-2-carboxamide] |  |  |  |  | < 5 | < 5 | > 25 | < 5 | 
Nc1c(C(=O)Nc2cccc(F)c2)sc2nc(-c3ccc(F)cc3)ccc12 [Compound 489, 3-amino-N-(3-fluroophenyl)-6-(4-fluroophenyl)thieno[2,3-b]pyridine-2-carboxamide] | < 5 | < 5 | < 5 | < 5 |  |  |  |  | 
COc1cccc(-c2ccc3c(N)c(C(=O)Nc4ccc(SC)cc4)sc3n2)c1 [Compound 566, 3-amino-6-(3-methoxyphenyl)-N-(4-methylsulfanylphenyl)thieno[2,3-b] pyridine-2-carboxamide] | < 5 | < 5 | < 5 | < 5 |  |  |  |  | 
COc1cccc(-c2ccc3c(N)c(C(=O)Nc4ccc(C)c(C)c4)sc3n2)c1 [Compound 546, 3-amino-N-(3,4-dimethylphenyl)-6-(3-methoxyphenyl)thieno[2,3-b]pyridine-2-carboxamide] | < 5 | < 5 | < 5 | < 5 |  |  |  |  | 
COc1cc(NC(=O)c2sc3nc(-c4cccs4)ccc3c2N)cc(OC)c1OC [Compound 473, 3-amino-6-(2-thienyl)-N-(3,4,5-trimethoxyphenyl)thieno[2,3-b]pyridine-2-carboxamide] | < 5 | < 5 | < 5 |  |  |  |  |  | < 5
CCNc1c(C(=O)Nc2cccc(C(F)(F)F)c2)sc2nc(-c3cccs3)ccc12 [Compound 321, 3-(ethylamino)-6-(2-thienyl)-N-[3-(trifluoromethyl)phenyl]thieno[2,3-b]pyridine-2-carboxamide] |  |  |  |  | < 5 | < 5 | < 5 | < 5 | 
COc1ccc(-c2ccc3c(N)c(C(=O)Nc4ccc(Cl)cc4F)sc3n2)cc1OC [Compound 534, 3-amino-N-(4-chloro-2-fluoro-phenyl)-6-(3,4-dimethoxyphenyl)thieno[2,3-b] pyridine-2-carboxamide] | < 5 | < 5 | < 5 | < 5 |  |  |  |  | 
CC(=O)c1ccc2c(N)c(C(=O)Nc3ccc(C(F)(F)F)cc3)sc2n1 [Compound 483, 6-acetyl-3-amino-N-[4-(trifluoromethyl)phenyl]thieno[2,3-b] pyridine-2-carboxamide] | < 5 | < 5 | < 5 | < 5 |  |  |  |  | 
Nc1c(C(=O)Nc2ccc(Br)nc2)sc2nc(-c3ccc(Cl)cc3)ccc12 [Compound 336, 3-amino-N-(6-bromo-3-pyridyl)-6-(4-chlorophenyl)thieno [2,3-b]pyridine-2-carboxamide] | < 5 | < 5 | < 5 | < 5 |  |  |  |  | 
COc1ccc(-c2ccc3c(N)c(C(=O)Nc4cccc(C(F)(F)F)c4)sc3n2)cc1 [Compound 472, 3-amino-6-(4-methoxyphenyl)-N-[3-(trifluoromethyl)phenyl]thieno[2,3-b] pyridine-2-carboxamide] | < 5 | < 5 | < 5 | < 5 |  |  |  |  | 
COc1ccc(-c2ccc3c(N)c(C(=O)Nc4ccccc4Br)sc3n2)cc1 [Compound 468, 3-amino-N-(2-bromophenyl)-6-(4-methoxyphenyl)thieno[2,3-b]pyridine-2-carboxamide] | < 5 | < 5 | < 5 | < 5 |  |  |  |  | 
N#Cc1c(O)nc2sc(C(=O)Nc3ccc(Br)cc3)c(N)c2c1-c1ccco1 [Compound 325, 3-amino-N-(4-bromophenyl)-5-cyano-4-(2-furyl)-6-hydroxy-thieno[2,3-b]pyridine-2-carboxamide] | < 5 | < 5 | < 5 | < 5 |  |  |  |  | 
CNCC(=O)Nc1c(C(=O)Nc2cccc(C(F)(F)F)c2)sc2nc(-c3cccs3)ccc12 [Compound 307, 3-[[2-(methylamino)acetyl]amino]-6-(2-thienyl)-N-[3-(trifluoromethyl)phenyl]thieno[2,3-b]pyridine-2-carboxamide] |  |  |  |  | < 5 | < 5 | < 5 | < 5 | 
Nc1c(C(=O)Nc2ccc(Cl)cc2)sc2nc(-c3ccc(Cl)cc3)ccc12 [Compound 333, 3-amino-N,6-bis(4-chlorophenyl)thieno [2,3-b]pyridine-2-carboxamide] | < 5 | < 5 | < 5 | < 5 |  |  |  |  | 
